Results published in BindingDB's records for doi:10.1016/j.bmc.2019.01.024 (2019).

Assays:
[1] = Inhibition of mouse GAT3 expressed in HEK293 cells assessed as reduction in [3H]GABA uptake preincubated for 25 mins followed by [3H]GABA addition and measured after 4 mins by microbeta liquid scintillation counting method
[2] = Inhibition of mouse GAT2 expressed in HEK293 cells assessed as reduction in [3H]GABA uptake preincubated for 25 mins followed by [3H]GABA addition and measured after 10 mins by microbeta liquid scintillation counting method
[3] = molecular target: T1, Sodium- and chloride-dependent GABA transporter 2 (Mus musculus, UniProt P31649); assay: Inhibition of mouse GAT2 expressed in HEK293 cells assessed as reduction in [3H]GABA uptake preincubated for 25 mins followed by [3H]GABA addition and measured after 10 mins by microbeta liquid scintillation counting method
T1 sequence (P31649 whole entry): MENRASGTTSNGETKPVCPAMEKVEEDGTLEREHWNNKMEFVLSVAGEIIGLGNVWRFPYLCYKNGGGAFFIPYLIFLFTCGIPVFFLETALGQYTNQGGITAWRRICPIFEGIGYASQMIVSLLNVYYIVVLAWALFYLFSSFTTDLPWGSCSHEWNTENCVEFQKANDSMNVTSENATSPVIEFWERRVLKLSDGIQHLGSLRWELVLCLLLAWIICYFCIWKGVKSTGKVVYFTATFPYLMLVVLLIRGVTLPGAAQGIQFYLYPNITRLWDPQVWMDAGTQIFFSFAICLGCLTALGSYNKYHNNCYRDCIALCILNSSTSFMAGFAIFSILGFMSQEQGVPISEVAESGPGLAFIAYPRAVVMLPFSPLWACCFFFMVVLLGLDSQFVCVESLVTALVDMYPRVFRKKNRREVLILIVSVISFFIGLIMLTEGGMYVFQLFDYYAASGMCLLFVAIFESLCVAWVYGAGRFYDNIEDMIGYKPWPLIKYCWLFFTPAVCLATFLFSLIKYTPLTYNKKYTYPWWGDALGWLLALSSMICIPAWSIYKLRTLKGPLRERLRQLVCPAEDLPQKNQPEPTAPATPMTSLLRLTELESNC

| SMILES | IC50 [1] [µM] | IC50 [2] [µM] | IC50 [3] [µM] |
| --- | --- | --- | --- |
| COc1ccc(C(/C=C\CN2CCCC(C(=O)O)C2)(c2ccc(OC)cc2)c2ccc3c(c2)OCO3)cc1 (stereo unspecified) | 45.7 | 61.7 |  |
| O=C(O)C1CCCN(CC/C=C\C(c2ccccc2)(c2ccccc2)c2ccccc2)C1 (stereo unspecified) |  | 55 |  |

Other lines, results leading:

| IC50 [1] [µM] | IC50 [2] [µM] | IC50 [3] [µM] | SMILES |
| --- | --- | --- | --- |
|  |  | 30.2 | COc1ccc(C(/C=C\CN2CCCC(C(=O)O)C2)(Cc2ccccc2)c2ccc(OC)cc2)cc1 (stereo unspecified) |
| 85.1 |  |  | COc1ccc(C(C/C=C\CN2CCCC(C(=O)O)C2)(c2ccc(OC)cc2)c2ccc(OC)cc2)cc1 (stereo unspecified) |
|  | 89.1 |  | COc1ccc(C(/C=C\CN2CCCC(C(=O)O)C2)(c2ccc(OC)cc2)c2ccsc2)cc1 (stereo unspecified) |
